Source: ChEMBL document CHEMBL2429812, “Exploring multitarget interactions to reduce opiate withdrawal syndrome and psychiatric comorbidity” (ACS Med Chem Lett, 2013)
The source made the active and inactive calls. No cut-off for these calls is given here.

Legend:
Mus musculus [1] = assay: Reduction in morphine dependence expression in ip dosed mouse assessed as dosed required for decrease in expression of naloxone-precipitated withdrawal syndrome; assay type: functional
Mus musculus [2] = assay: Antidepressant-like activity in ip dosed mouse assessed as dosed required for reduction in immobility time by forced swimming test; assay type: functional
[3] = Binding affinity to I2 imidazoline binding site in rat brain membrane; assay type: cell membranes
[4] = target: T1, Alpha-2C adrenergic receptor (Homo sapiens, UniProt P18825); assay: Binding affinity at human alpha2C AR
T1 sequence (P18825 whole entry): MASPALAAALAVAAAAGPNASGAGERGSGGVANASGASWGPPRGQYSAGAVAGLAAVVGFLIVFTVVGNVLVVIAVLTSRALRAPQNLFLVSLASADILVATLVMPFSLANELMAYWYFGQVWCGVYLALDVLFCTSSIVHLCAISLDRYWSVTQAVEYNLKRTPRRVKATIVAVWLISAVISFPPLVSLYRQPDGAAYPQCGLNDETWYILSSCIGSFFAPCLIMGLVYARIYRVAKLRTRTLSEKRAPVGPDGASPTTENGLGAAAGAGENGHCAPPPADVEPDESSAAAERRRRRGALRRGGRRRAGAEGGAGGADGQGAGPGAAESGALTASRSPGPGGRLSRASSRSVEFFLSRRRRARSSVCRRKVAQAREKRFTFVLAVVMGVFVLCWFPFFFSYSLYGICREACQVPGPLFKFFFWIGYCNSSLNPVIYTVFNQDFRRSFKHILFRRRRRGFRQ

[5] = target: T2, Alpha-2B adrenergic receptor (Homo sapiens, UniProt P18089); assay: Binding affinity at human alpha2B AR
T2 sequence (P18089 whole entry): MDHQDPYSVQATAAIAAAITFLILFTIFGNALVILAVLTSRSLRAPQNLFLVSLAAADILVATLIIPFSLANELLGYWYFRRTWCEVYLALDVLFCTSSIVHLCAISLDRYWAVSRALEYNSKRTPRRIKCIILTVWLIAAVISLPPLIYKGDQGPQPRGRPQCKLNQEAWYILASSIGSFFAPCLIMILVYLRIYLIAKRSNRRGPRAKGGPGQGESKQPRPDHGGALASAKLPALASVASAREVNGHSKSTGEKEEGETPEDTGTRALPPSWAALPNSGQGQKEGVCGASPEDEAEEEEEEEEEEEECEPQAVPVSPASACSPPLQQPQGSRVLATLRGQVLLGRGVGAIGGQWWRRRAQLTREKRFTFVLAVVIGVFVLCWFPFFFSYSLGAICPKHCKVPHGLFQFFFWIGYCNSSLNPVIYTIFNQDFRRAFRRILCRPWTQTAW

[6] = target: T3, Alpha-2A adrenergic receptor (Homo sapiens, UniProt P08913); assay: Binding affinity at human alpha2A AR
T3 sequence (P08913 whole entry): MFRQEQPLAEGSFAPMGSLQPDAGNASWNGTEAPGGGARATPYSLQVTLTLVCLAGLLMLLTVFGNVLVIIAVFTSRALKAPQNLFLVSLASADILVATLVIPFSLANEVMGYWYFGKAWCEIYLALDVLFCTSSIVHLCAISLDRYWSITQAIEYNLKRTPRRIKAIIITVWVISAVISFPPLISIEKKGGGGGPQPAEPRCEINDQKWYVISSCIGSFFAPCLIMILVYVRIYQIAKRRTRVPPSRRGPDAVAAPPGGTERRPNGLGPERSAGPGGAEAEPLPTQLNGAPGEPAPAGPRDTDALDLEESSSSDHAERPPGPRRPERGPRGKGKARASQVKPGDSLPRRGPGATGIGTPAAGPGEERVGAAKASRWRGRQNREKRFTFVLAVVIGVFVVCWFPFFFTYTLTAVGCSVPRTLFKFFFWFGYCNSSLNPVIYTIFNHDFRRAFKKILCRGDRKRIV

[7] = target: T4, Alpha-2C adrenergic receptor (Homo sapiens) (UniProt P18825); assay: Agonist activity at human alpha2C AR assessed as intrinsic activity
T4 sequence (whole entry): T1 sequence (P18825 whole entry)

[8] = target: T5, Alpha-2B adrenergic receptor (Homo sapiens) (UniProt P18089); assay: Agonist activity at human alpha2B AR assessed as intrinsic activity
T5 sequence (whole entry): T2 sequence (P18089 whole entry)

[9] = target: T6, 5-hydroxytryptamine receptor 1A (Homo sapiens) (UniProt P08908); assay: Agonist activity at human 5HT1A receptor
T6 sequence (whole entry): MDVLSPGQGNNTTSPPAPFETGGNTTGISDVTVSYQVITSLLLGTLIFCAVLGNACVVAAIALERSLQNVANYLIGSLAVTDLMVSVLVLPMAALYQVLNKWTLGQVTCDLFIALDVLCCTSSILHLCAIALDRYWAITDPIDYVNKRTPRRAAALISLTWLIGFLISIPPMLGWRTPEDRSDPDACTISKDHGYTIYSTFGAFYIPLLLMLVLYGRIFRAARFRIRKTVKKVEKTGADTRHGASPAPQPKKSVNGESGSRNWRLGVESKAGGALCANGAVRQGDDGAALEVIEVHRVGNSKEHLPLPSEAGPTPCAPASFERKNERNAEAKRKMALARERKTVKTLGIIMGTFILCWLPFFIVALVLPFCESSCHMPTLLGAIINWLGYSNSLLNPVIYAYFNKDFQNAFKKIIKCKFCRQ

[10] = target: T7, Alpha-2A adrenergic receptor (Homo sapiens) (UniProt P08913); assay: Antagonist activity at human alpha2A AR
T7 sequence (whole entry): T3 sequence (P08913 whole entry)

Mus musculus [11] = assay: Antidepressant-like activity in mouse assessed as reduction in immobility time at 0.05 mg/kg, ip by forced swimming test; assay type: functional, organism-based; design: dose 0.05 mg/kg
[12] = target: T8, 5-hydroxytryptamine receptor 1A (Homo sapiens, UniProt P08908); assay: Binding affinity at human 5HT1A receptor
T8 sequence (P08908 whole entry): T6 sequence (whole entry)

[13] = target: T6, 5-hydroxytryptamine receptor 1A (Homo sapiens); assay: Agonist activity at human 5HT1A receptor relative to control
Mus musculus [14] = assay: Antidepressant-like activity in mouse assessed as reduction in immobility time at 20 mg/kg, ip by forced swimming test; assay type: functional, organism-based; design: dose 20 mg/kg
Mus musculus [15] = assay: Antidepressant-like activity in mouse assessed as reduction in immobility time at 0.025 mg/kg, ip by forced swimming test; assay type: functional, organism-based; design: dose 0.025 mg/kg
[16] = target: T5, Alpha-2B adrenergic receptor (Homo sapiens)
[17] = target: T6, 5-hydroxytryptamine receptor 1A (Homo sapiens); assay: Agonist activity at human 5HT1A receptor assessed as intrinsic activity
[18] = target: T1, Alpha-2C adrenergic receptor; assay: Agonist activity at human alpha2C AR
[19] = target: T2, Alpha-2B adrenergic receptor; assay: Agonist activity at human alpha2B AR
Mus musculus [20] = assay: Antidepressant-like activity in mouse assessed as reduction in immobility time at 10 mg/kg, ip by forced swimming test; assay type: functional, organism-based; design: dose 10 mg/kg

Row | Compound | pKi [3] | Ki [4] [nM] | Ki [5] [nM] | Ki [6] [nM] | Intrinsic activity [7] | Intrinsic activity [8] | pD2 [9] | pKb [10] | Ki [12] [nM] | also measured
1 | c1ccc2oc(C3=NCCN3)cc2c1 | 8.89 | 26900 | 26900 | 26900 | – | – | – | – | – | Activity (Mus musculus [1]): 19 mg/kg; Activity (Mus musculus [2]): 10 mg/kg
2 | C=CCc1ccccc1O[C@@H](C)C1=NCCN1 | – | – | – | – | 0.9 | 0.65 | 7.19 | 7.8 | – | –
3 | CC(Oc1ccccc1CC1CC1)C1=NCCN1 (stereo not drawn) [CYCLOMETHYLINE] | < 6 | – | – | – | 0.8 | 0.7 | – | – | – | Activity (Mus musculus [11]): Active
4 | CC(Oc1ccccc1Br)C1=NCCN1 (stereo not drawn) | < 6 | – | – | – | 0.87 | 0.4 | – | 7.04 | 148 | –
5 | CC(Oc1ccccc1C1CC1)C1=NCCN1 (stereo not drawn) | < 6 | – | – | – | 0.9 | 0.7 | 7.24 | 7 | 7.24 | Activity (Mus musculus [11]): Active; Emax [13]: 92%
6 | CNCCC(Oc1ccc(C(F)(F)F)cc1)c1ccccc1 (stereo not drawn) | – | – | – | – | – | – | – | – | – | Activity (Mus musculus [14]): Active
7 | CC(Oc1ccccc1OC1CC1)C1=NCCN1 (stereo not drawn) | < 6 | – | – | – | 0.7 | 0.6 | – | 6.9 | 14.8 | –
8 | C[C@@H](Oc1ccccc1C1CC1)C1=NCCN1 | – | – | – | – | 0.5 | – | < 5 | 6.9 | – | Activity (Mus musculus [15]): inactive; pEC50 [16]: inactive
9 | C[C@@H](Oc1ccccc1CC1CC1)C1=NCCN1 | – | – | – | – | 0.75 | 0.65 | – | – | – | –
10 | C=CCc1ccccc1O[C@H](C)C1=NCCN1 | – | – | – | – | 0.5 | – | < 5 | 7.4 | – | pEC50 [16]: inactive
11 | c1ccc(C2CC2)c(OCC2=NCCN2)c1 [CIRAZOLINE] | 8.35 | – | – | – | – | – | – | 6.4 | 34.7 | Intrinsic activity [17]: 0.8
12 | c1ccc(OCC2=NCCN2)c(CC2CC2)c1 | 6.9 | 631 | 501 | 77.6 | – | – | – | 6.35 | 83.2 | Intrinsic activity [17]: 0.8; EC50 [18]: 234 nM; EC50 [19]: 1700 nM
13 | CCCc1ccccc1OCC1=NCCN1 | 8.25 | 490 | 550 | 49 | – | – | – | 6.28 | 79.4 | Intrinsic activity [17]: 0.9; Activity (Mus musculus [20]): Active; EC50 [18]: 155 nM; EC50 [19]: 2510 nM
14 | C[C@H](Oc1ccccc1C1CC1)C1=NCCN1 | – | – | – | – | 0.9 | 0.65 | 7.86 | 7.7 | 6.03 | Activity (Mus musculus [15]): Active; Emax [13]: 102%
15 | c1ccc(OC2CC2)c(OCC2=NCCN2)c1 | < 6 | 794 | 794 | 316 | – | – | – | 6.22 | 79.4 | Intrinsic activity [17]: 1; EC50 [18]: 1000 nM; EC50 [19]: 3160 nM
16 | C=CCc1ccccc1OC(C)C1=NCCN1 (stereo not drawn) [ALLYPHENYLINE] | < 6 | – | – | – | 0.9 | – | 6.86 | 7.4 | – | Activity (Mus musculus [11]): Active; pEC50 [16]: inactive
17 | CCCc1ccccc1OC(C)C1=NCCN1 (stereo not drawn) | < 6 | 148 | 537 | 50.1 | 0.75 | 0.6 | 7.08 | 7.05 | 13.8 | Emax [13]: 118%; EC50 [18]: 25.1 nM; EC50 [19]: 5010 nM
18 | Brc1ccccc1OCC1=NCCN1 | 7.9 | 398 | 617 | 95.5 | – | – | – | 6.72 | 562 | Intrinsic activity [17]: 0.88; EC50 [18]: 97.7 nM; EC50 [19]: 1260 nM
19 | C[C@H](Oc1ccccc1CC1CC1)C1=NCCN1 | – | – | – | – | 0.85 | 0.7 | – | – | – | –
20 | c1ccc2oc(-c3ncc[nH]3)cc2c1 | – | – | – | – | – | – | – | – | – | Activity (Mus musculus [1]): 20 mg/kg
